Read-outs that look alike come from different tables or passages of the source.
What was measured:
Assay in all cases: Kinase binding screen
PIK3CA(H1047Y) = PIK3CA(H1047Y) (Homo sapiens (Human), UniProt P42336, H1047Y); details: read-out: Percent Control at 100 nM Compound Concentration
PAK1 = PAK1 (Homo sapiens (Human), UniProt Q13153); details: read-out: Percent Control at 100 nM Compound Concentration
PCTK1 = PCTK1 (Homo sapiens (Human), UniProt Q00536); details: read-out: Percent Control at 100 nM Compound Concentration
NEK3 = NEK3 (Homo sapiens (Human), UniProt P51956); details: read-out: Percent Control at 100 nM Compound Concentration
YSK1 = YSK1 (Homo sapiens (Human), UniProt O00506); details: read-out: Percent Control at 100 nM Compound Concentration
YSK1, sequence (O00506 whole entry): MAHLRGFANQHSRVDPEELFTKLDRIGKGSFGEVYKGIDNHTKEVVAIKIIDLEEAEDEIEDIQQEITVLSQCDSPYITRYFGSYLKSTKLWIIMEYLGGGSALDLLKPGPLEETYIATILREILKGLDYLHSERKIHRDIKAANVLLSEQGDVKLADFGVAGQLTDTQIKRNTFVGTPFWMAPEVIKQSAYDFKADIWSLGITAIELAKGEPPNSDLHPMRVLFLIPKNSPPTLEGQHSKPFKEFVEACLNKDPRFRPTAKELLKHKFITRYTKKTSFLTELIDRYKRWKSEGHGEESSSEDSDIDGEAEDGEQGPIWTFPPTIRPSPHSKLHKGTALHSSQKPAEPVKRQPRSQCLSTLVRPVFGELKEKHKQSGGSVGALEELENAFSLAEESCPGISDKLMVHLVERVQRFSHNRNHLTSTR

EPHA3 = EPHA3 (Homo sapiens (Human), UniProt P29320); details: read-out: Percent Control at 100 nM Compound Concentration
EPHA3, sequence (P29320 21-983): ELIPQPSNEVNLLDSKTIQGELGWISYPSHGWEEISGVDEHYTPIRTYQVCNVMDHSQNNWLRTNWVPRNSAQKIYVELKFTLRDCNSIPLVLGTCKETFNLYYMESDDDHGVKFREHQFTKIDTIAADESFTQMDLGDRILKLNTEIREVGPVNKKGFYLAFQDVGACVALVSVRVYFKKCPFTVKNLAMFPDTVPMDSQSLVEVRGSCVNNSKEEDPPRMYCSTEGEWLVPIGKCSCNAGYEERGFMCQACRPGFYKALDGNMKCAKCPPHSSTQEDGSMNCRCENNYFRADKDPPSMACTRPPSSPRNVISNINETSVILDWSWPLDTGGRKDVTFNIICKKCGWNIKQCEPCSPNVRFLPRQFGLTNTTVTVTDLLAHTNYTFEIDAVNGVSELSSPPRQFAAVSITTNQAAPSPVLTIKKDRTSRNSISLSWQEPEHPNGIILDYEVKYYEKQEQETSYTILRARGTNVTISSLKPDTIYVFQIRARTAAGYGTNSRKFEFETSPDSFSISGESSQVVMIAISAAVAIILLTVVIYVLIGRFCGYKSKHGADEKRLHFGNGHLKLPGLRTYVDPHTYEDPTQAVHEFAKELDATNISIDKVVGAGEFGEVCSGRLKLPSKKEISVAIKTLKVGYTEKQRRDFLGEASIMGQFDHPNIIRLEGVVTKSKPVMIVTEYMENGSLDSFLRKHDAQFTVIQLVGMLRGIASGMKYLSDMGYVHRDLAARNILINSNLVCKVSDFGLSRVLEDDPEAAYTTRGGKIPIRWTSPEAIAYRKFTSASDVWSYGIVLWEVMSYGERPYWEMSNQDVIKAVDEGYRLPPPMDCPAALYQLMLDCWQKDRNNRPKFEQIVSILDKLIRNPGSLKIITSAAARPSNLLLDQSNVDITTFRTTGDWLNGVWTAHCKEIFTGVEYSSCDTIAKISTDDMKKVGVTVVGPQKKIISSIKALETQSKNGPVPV

PLK2 = PLK2 (Homo sapiens (Human), UniProt Q9NYY3); details: read-out: Percent Control at 100 nM Compound Concentration
ZAK = ZAK (Homo sapiens (Human), UniProt Q9NYL2); details: read-out: Percent Control at 100 nM Compound Concentration
EGFR(L858R) = EGFR(L858R) (Homo sapiens (Human), UniProt P00533, L858R); details: read-out: Percent Control at 100 nM Compound Concentration
HCK = HCK (Homo sapiens (Human), UniProt P08631); details: read-out: Percent Control at 100 nM Compound Concentration
PRKD1 = PRKD1 (Homo sapiens (Human), UniProt Q15139); details: read-out: Percent Control at 100 nM Compound Concentration
PRKD1, sequence (Q15139 whole entry): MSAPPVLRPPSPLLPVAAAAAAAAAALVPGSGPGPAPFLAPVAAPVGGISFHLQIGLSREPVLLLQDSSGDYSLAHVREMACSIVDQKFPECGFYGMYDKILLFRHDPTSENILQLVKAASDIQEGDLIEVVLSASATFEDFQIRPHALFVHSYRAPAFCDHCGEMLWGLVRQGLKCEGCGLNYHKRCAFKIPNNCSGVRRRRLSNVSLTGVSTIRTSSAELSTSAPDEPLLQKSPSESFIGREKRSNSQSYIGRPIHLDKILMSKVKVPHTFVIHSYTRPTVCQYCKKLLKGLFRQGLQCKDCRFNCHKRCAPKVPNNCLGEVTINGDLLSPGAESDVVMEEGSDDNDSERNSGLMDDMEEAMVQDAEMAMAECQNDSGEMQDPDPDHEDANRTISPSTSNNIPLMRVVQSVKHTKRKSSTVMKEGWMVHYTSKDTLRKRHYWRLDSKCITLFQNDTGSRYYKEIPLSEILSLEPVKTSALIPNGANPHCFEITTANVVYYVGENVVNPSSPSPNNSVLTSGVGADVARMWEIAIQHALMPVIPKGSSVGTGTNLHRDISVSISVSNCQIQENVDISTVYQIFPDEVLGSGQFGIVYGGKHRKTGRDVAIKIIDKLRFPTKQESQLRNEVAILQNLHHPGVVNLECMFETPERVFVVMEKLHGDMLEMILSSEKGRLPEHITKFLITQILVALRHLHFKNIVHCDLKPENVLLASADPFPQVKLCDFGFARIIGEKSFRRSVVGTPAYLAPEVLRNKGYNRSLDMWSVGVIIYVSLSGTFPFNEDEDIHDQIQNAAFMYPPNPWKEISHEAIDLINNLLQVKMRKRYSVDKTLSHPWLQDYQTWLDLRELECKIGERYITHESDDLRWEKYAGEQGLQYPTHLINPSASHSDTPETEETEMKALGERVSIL

[1] = molecular target: ABL1(F317L)-phosphorylated (Homo sapiens (Human), UniProt P00519, F317L); details: read-out: Percent Control at 100 nM Compound Concentration
ACVR2B = ACVR2B (Homo sapiens (Human), UniProt Q13705); details: read-out: Percent Control at 100 nM Compound Concentration
PLK1 = PLK1 (Homo sapiens (Human), UniProt P53350); details: read-out: Percent Control at 100 nM Compound Concentration
EGFR = EGFR (Homo sapiens (Human), UniProt P00533); details: read-out: Percent Control at 100 nM Compound Concentration
GRK1 = GRK1 (Homo sapiens (Human), UniProt Q15835); details: read-out: Percent Control at 100 nM Compound Concentration
[2] = molecular target: EGFR(L747-E749del, A750P) (Homo sapiens (Human), UniProt P00533, A750P/DEL747-749); details: read-out: Percent Control at 100 nM Compound Concentration
PRKG1 = PRKG1 (Homo sapiens (Human), UniProt Q13976); details: read-out: Percent Control at 100 nM Compound Concentration
IRAK1 = IRAK1 (Homo sapiens (Human), UniProt P51617); details: read-out: Percent Control at 100 nM Compound Concentration
ROCK2 = ROCK2 (Homo sapiens (Human), UniProt O75116); details: read-out: Percent Control at 100 nM Compound Concentration
TAOK2 = TAOK2 (Homo sapiens (Human), UniProt Q9UL54); details: read-out: Percent Control at 100 nM Compound Concentration
GRK2 = GRK2 (Homo sapiens (Human), UniProt P25098); details: read-out: Percent Control at 100 nM Compound Concentration
PYK2 = PYK2 (Homo sapiens (Human), UniProt Q14289); details: read-out: Percent Control at 100 nM Compound Concentration
PYK2, sequence (Q14289 whole entry): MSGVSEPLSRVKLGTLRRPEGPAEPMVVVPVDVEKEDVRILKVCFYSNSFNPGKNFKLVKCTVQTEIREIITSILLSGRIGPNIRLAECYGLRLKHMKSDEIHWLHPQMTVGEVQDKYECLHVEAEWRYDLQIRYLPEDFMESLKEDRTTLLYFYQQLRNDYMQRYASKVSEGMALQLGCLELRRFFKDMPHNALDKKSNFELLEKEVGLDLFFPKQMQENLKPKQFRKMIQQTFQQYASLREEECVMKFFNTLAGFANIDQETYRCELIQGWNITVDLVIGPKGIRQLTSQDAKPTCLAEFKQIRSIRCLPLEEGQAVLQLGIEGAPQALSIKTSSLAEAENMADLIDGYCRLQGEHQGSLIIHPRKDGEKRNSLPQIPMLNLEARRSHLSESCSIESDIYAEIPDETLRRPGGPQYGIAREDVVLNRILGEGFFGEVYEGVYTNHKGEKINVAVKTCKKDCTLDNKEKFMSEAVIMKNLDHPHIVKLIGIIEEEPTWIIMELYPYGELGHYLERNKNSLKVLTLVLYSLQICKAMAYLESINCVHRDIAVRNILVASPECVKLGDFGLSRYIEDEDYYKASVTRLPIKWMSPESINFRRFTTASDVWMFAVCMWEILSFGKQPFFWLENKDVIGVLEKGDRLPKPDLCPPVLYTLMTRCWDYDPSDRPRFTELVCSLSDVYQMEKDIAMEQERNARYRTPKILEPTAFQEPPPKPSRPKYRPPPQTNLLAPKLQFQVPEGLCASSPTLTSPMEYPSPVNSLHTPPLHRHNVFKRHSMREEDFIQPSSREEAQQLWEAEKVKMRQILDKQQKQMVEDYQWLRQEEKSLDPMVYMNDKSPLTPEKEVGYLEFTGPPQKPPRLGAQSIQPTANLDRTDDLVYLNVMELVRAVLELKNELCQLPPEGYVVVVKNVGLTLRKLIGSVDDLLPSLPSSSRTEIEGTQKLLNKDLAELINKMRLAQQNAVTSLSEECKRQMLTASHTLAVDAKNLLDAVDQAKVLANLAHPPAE

STK39 = STK39 (Homo sapiens (Human), UniProt Q9UEW8); details: read-out: Percent Control at 100 nM Compound Concentration
FLT3(ITD,D835V) = test system: FLT3(ITD,D835V); set-up: species or system human
FLT3(D835Y) = FLT3(D835Y) (Homo sapiens (Human), UniProt P36888, D835Y); details: read-out: Percent Control at 100 nM Compound Concentration
EPHB6 = EPHB6 (Homo sapiens (Human), UniProt O15197); details: read-out: Percent Control at 100 nM Compound Concentration
EPHB6, sequence (O15197 32-1021): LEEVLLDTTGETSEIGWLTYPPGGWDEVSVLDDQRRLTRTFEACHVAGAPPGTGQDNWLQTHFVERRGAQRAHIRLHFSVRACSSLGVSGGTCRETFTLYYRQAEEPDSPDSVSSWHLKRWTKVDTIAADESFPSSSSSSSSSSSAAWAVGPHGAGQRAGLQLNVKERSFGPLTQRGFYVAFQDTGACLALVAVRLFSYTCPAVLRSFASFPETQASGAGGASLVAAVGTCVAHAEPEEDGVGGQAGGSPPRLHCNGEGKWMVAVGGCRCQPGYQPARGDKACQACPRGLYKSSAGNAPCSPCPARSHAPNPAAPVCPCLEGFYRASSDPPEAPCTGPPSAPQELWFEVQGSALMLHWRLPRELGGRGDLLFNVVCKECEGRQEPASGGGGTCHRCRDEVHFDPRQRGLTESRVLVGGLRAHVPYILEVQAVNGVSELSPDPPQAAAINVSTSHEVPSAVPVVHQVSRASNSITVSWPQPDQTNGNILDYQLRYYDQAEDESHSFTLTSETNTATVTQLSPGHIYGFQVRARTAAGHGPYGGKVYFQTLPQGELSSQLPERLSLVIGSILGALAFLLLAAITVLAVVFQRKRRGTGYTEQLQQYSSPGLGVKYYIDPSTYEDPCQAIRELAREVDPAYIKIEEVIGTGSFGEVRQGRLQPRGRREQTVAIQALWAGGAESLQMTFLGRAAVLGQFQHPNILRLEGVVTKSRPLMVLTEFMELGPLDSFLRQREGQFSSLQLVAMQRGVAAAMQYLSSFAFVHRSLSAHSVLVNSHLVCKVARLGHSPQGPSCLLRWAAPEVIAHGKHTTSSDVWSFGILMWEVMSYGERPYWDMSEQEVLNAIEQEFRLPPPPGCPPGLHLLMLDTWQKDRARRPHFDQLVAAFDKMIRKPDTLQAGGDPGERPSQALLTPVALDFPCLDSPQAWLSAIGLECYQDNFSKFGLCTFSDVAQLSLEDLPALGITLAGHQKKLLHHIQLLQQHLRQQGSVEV

HUNK = HUNK (Homo sapiens (Human), UniProt P57058); details: read-out: Percent Control at 100 nM Compound Concentration
HUNK, sequence (P57058 whole entry): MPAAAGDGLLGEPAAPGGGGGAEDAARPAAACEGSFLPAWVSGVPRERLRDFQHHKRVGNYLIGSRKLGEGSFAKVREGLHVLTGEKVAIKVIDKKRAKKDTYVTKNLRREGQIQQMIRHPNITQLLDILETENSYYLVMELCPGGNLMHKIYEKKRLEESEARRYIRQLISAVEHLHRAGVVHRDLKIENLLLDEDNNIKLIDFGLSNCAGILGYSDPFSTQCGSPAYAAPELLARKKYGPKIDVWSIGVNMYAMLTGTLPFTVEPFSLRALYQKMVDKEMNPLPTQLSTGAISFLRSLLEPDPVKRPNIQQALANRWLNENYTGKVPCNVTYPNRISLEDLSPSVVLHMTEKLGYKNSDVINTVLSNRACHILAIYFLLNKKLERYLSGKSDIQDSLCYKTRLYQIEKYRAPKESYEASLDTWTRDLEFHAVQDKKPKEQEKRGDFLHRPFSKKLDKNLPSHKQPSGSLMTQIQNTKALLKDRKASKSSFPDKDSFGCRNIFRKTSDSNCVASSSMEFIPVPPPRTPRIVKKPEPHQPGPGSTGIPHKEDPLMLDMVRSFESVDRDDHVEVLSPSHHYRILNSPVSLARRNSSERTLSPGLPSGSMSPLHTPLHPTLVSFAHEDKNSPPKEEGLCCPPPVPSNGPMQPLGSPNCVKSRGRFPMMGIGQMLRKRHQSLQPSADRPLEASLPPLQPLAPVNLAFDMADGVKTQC

[3] = molecular target: JAK3(JH1domain-catalytic) (Homo sapiens (Human), UniProt P52333); details: read-out: Percent Control at 100 nM Compound Concentration

CN(C[C@@H](O)Cc1ccccc1)C(=O)c1cncc(C#Cc2cnn(C(F)F)c2)c1 [Example 2, (S)-5-((1-(difluoromethyl)-1H-pyrazol-4-yl)ethynyl)-N-(2-hydroxy-3-phenylpropyl)-N-methylnicotinamide]
remaining activity at 0.1 µM (PIK3CA(H1047Y); PIK3CA(H1047Y)): 71% | remaining activity at 0.1 µM (PAK1; PAK1): 100% | remaining activity at 0.1 µM (PCTK1; PCTK1): 91% | remaining activity at 0.1 µM (NEK3; NEK3): 96% | remaining activity at 0.1 µM (YSK1; YSK1): 100% | remaining activity at 0.1 µM (EPHA3; EPHA3): 100% | remaining activity at 0.1 µM (PLK2; PLK2): 98% | remaining activity at 0.1 µM (ZAK; ZAK): 100% | remaining activity at 0.1 µM (EGFR(L858R); EGFR(L858R)): 100% | remaining activity at 0.1 µM (HCK; HCK): 100% | remaining activity at 0.1 µM (PRKD1; PRKD1): 100% | remaining activity at 0.1 µM ([1]; ABL1(F317L)-phosphorylated): 82% | remaining activity at 0.1 µM (ACVR2B; ACVR2B): 91% | remaining activity at 0.1 µM (PLK1; PLK1): 87% | remaining activity at 0.1 µM (EGFR; EGFR): 93% | remaining activity at 0.1 µM (GRK1; GRK1): 100% | remaining activity at 0.1 µM ([2]; EGFR(L747-E749del, A750P)): 100% | remaining activity at 0.1 µM (PRKG1; PRKG1): 92% | remaining activity at 0.1 µM (IRAK1; IRAK1): 91% | remaining activity at 0.1 µM (ROCK2; ROCK2): 100% | remaining activity at 0.1 µM (TAOK2; TAOK2): 84% | remaining activity at 0.1 µM (GRK2; GRK2): 96% | remaining activity at 0.1 µM (PYK2; PYK2): 100% | remaining activity at 0.1 µM (STK39; STK39): 100% | Percent Control at 100 nM Compound Concentration (FLT3(ITD,D835V)): 100% | remaining activity at 0.1 µM (FLT3(D835Y); FLT3(D835Y)): 100% | remaining activity at 0.1 µM (EPHB6; EPHB6): 100% | remaining activity at 0.1 µM (HUNK; HUNK): 82% | remaining activity at 0.1 µM ([3]; JAK3(JH1domain-catalytic)): 100%

CN(C[C@H](Cc1ccccc1)OP(=O)(O)O)C(=O)c1cncc(C#Cc2cnn(C(F)F)c2)c1 [Example 19, (S)-1-(5-((1-(difluoromethyl)-1H-pyrazol-4-yl)ethynyl)-N-methylnicotinamido)-3-phenylpropan-2-yl dihydrogen phosphate]
remaining activity at 0.1 µM (PIK3CA(H1047Y)): 72% | remaining activity at 0.1 µM (PAK1): 100% | remaining activity at 0.1 µM (PCTK1): 84% | remaining activity at 0.1 µM (NEK3): 96% | remaining activity at 0.1 µM (YSK1): 97% | remaining activity at 0.1 µM (EPHA3): 100% | remaining activity at 0.1 µM (PLK2): 91% | remaining activity at 0.1 µM (ZAK): 100% | remaining activity at 0.1 µM (EGFR(L858R)): 94% | remaining activity at 0.1 µM (HCK): 100% | remaining activity at 0.1 µM (PRKD1): 100% | remaining activity at 0.1 µM [1]: 88% | remaining activity at 0.1 µM (ACVR2B): 99% | remaining activity at 0.1 µM (PLK1): 87% | remaining activity at 0.1 µM (EGFR): 100% | remaining activity at 0.1 µM (GRK1): 98% | remaining activity at 0.1 µM [2]: 84% | remaining activity at 0.1 µM (PRKG1): 100% | remaining activity at 0.1 µM (IRAK1): 86% | remaining activity at 0.1 µM (ROCK2): 100% | remaining activity at 0.1 µM (TAOK2): 77% | remaining activity at 0.1 µM (GRK2): 79% | remaining activity at 0.1 µM (PYK2): 100% | remaining activity at 0.1 µM (STK39): 100% | Percent Control at 100 nM Compound Concentration (FLT3(ITD,D835V)): 100% | remaining activity at 0.1 µM (FLT3(D835Y)): 100% | remaining activity at 0.1 µM (EPHB6): 100% | remaining activity at 0.1 µM (HUNK): 96% | remaining activity at 0.1 µM [3]: 100%

— patent US11767310B2, “Nicotinamide RIPK1 inhibitors” (AbbVie Inc., priority 2021, dated 2023)
